From paper PMC6826616, “Topical 2′-Hydroxyflavanone for Cutaneous Melanoma” (Cancers, 2019)
Like-named read-outs stand apart in the source and are kept apart here.

Columns and labels:
B16-F10 cells = test: MTT cytotoxicity assay, B16-F10; assay type: cell-based; details: Mus musculus
Text: We studied the growth-inhibitory effects of 2HF on the B16-F0 and B16-F10 murine melanoma cell lines as well as on the SK-MEL-24 human melanoma cell line. B16-F10 and SK-MEL-24 have been shown in previous studies to be highly resistant to treatment and much more invasive than B16-F0 [32]. […] The absorption value measured upon reduction of the MTT dye by functional mitochondria is an indirect measure of cell number that cannot distinguish inhibited cell proliferation from apoptotic or necrotic cell death. By counting viable (trypan-blue dye-excluding) cells using a hemacytometer, we verified that 2HF did indeed cause cell death.
Figure 1 Mouse and human melanoma cell survival following 2′-hydroxyflavanone (2HF) treatment.
The IC50 of 2HF on B16-F0, B16-F10, and SK-MEL-24 cells was determined by MTT cytotoxicity assay. Cells were harvested and Trypan Blue dye exclusion test was used to determine the number of viable cells present in a cell suspension using a hemocytometer. The cell suspension was diluted to 5 × 10^4 cells/mL with Dulbecco’s Modified Eagle’s Medium (DMEM) complete medium and 5000 cells/well were plated in 96-well plates. After 24 h incubation at 37 °C, cells were treated with 2HF concentrations ranging from 0–200 µM (8 replicates per plate). After 48 or 72 h incubation, 40 µL of MTT (5 mg/mL) solution was added. After 4 h incubation, the plate was centrifuged at 700× g for 5 min and medium was aspirated completely. Then, 50 µL DMSO was added to each well to dissolve the purple precipitate on the rocking platform for about 15 min. The absorbance was then measured at 490 nm using a 96-well microplate reader (Spectramax Plus, Molecular Devices, Inc, San Jose, CA, USA).

SK-MEL-24 cells = test: Western blot densitometry of whole-cell lysates, SK-MEL-24; assay type: cell-based, human; details: 48 h
Protocol: Supplemental data for Fig. 2C. Caspase 9
Numbers below of each blot represent protein 1.0 1.2 0.5 ND ND ND ND ND ND band intensity ratios to adequate controls after Procaspase 3 […]
RAL BP- 1 and apoptosis enzymes in SK-Mel-24, B16F0 17kD Active caspase 3 […]
48h. Cells were plated in complete growth medium. After overnight, cells were treated with different doses of 2HF, and PARP-1 incubated for 48h. Total cell lysates (40 µg/lane) were […]
buffer. Proteins were transferred to nitrocellulose C-terminal cleaved membrane, nonspecific binding was done in 1X clear milk, PARP~89kDa
+0.1%T20 (Invitrogen) for 1h at room temperature. All primary antibodies were from (mouse monoclonal, 1.0 0.8 0.9 1.0 0.9 ND 1.0 1.1 ND Santacruze Biotechnology (1:1000), in 1X clear milk
+0.1%T20 overnight in 40C. Secondary antibody from N-terminal cleaved
Santacruze Biotech (1:2000) for 1h at room temperature in PARP~24kDa […]
Supplemental Figure 7 Supplemental data for Fig. 5.
B16F0 SK-Mel- 24 B16F10Numbers below of each blot represent protein band intensity ratios to adequate
TNF-α Full blots are presented in next 4 figures. […]
cells after treatment with 50, 100 µM 2HF for 48h.
Raf-1 Raf-1 Cells were plated in complete growth medium. After overnight, cells were treated with different doses of 2HF, […]
loaded on 4- 12% bis-tris gel, with 1X MES gel running p-MEK-1 p-MEK-1 buffer. Proteins were transferred to nitrocellulose membrane, nonspecific binding was done in 1X clear
All primary antibodies were from (mouse monoclonal, MEKK15 MEKK15 except TNF-α (American Hamster), Santacruze
1.0 0.9 0.1 ND ND ND overnight in 40C. Secondary antibody from Santacruze Biotech (1:2000) for 1h at room temperature in 1X clear […]

What does the source list for `O=C1CC(c2ccccc2O)Oc2ccccc21` (centres unmarked) [2HF, 2′-hydroxyflavanone]?
IC50 (B16-F10 cells; MTT, 72 h, mean ±SD, n = 5, read-out: IC50 at 72 h (growth/survival)): 47 ± 6 µM; IC50 (B16-F10 cells; Table 1, agent alone, read-out: IC50): 42 ± 1.83 µM; Active caspase 3 band intensity ratio to control (normalized against β-Actin) (SK-MEL-24 cells; SK-Mel-24, 50 µM 2HF): 0.9; C-terminal cleaved PARP~89kDa band intensity ratio to control (normalized against β-Actin) (SK-MEL-24 cells; SK-Mel-24, 50 µM 2HF): 0.8; Caspase 9 band intensity ratio to control (normalized against β-Actin) (SK-MEL-24 cells; SK-Mel-24, 50 µM 2HF): 1.2; N-terminal cleaved PARP~24kDa band intensity ratio to control (normalized against β-Actin) (SK-MEL-24 cells; SK-Mel-24, 50 µM 2HF): 0.8; PARP-1 band intensity ratio to control (normalized against β-Actin) (SK-MEL-24 cells; SK-Mel-24, 50 µM 2HF): 0.7; Procaspase 3 band intensity ratio to control (normalized against β-Actin) (SK-MEL-24 cells; SK-Mel-24, 50 µM 2HF): 0.8; RAL BP-1 band intensity ratio to control (normalized against β-Actin) (SK-MEL-24 cells; SK-Mel-24, 50 µM 2HF): 0.4; Raf-1 band intensity ratio to control (normalized against β-Actin) (SK-MEL-24 cells; SK-Mel-24, 50 µM 2HF): 1.7; TNF-α band intensity ratio to control (normalized against β-Actin) (SK-MEL-24 cells; SK-Mel-24, 50 µM 2HF): 0.4; p-PDGFR-β band intensity ratio to control (normalized against β-Actin) (SK-MEL-24 cells; SK-Mel-24, 50 µM 2HF): 0.7; Active caspase 3 band intensity ratio to control (normalized against β-Actin) (SK-MEL-24 cells; SK-Mel-24, 100 µM 2HF): 1.1; C-terminal cleaved PARP~89kDa band intensity ratio to control (normalized against β-Actin) (SK-MEL-24 cells; SK-Mel-24, 100 µM 2HF): 0.9; Caspase 9 band intensity ratio to control (normalized against β-Actin) (SK-MEL-24 cells; SK-Mel-24, 100 µM 2HF): 0.5; N-terminal cleaved PARP~24kDa band intensity ratio to control (normalized against β-Actin) (SK-MEL-24 cells; SK-Mel-24, 100 µM 2HF): 0.4; PARP-1 band intensity ratio to control (normalized against β-Actin) (SK-MEL-24 cells; SK-Mel-24, 100 µM 2HF): 0.1; Procaspase 3 band intensity ratio to control (normalized against β-Actin) (SK-MEL-24 cells; SK-Mel-24, 100 µM 2HF): 0.5; RAL BP-1 band intensity ratio to control (normalized against β-Actin) (SK-MEL-24 cells; SK-Mel-24, 100 µM 2HF): 0.1; p-PDGFR-β band intensity ratio to control (normalized against β-Actin) (SK-MEL-24 cells; SK-Mel-24, 100 µM 2HF): 0.4
